According to patent US8409552B2, “Anthranillic acid amides and derivatives thereof as cosmetic and pharmaceutical active compounds” (Symrise AG, priority 2002, dated 2013):
≈ marks a conversion by molar mass, not a printed value. Read-outs that look alike come from different tables or passages of the source.

What was measured:
mast cells [1] = details: cited from earlier work
[2] = system: Mast cells from the peritoneal tissue of rats; experiment: Inhibition of substance P-induced release of histamine from mast cells; assay type: cell-based, rat; details: for IC50: positive control, read-out: concentration for 50% inhibition of substance P-induced release of histamine; for inhibition at 0.5 µg/mL / inhibition at 5 µg/mL / inhibition at 50 µg/mL: Rattus norvegicus, Mast cell, 2 min, substance P 10 μM, 37° C., based on histamine content of cells stimulated with substance P; for inhibition at 0.5 µg/mL: 0.5 ppm synthetic substance; for inhibition at 5 µg/mL: 5 ppm synthetic substance; for inhibition at 50 µg/mL: 50 ppm synthetic substance; for activity in inhibiting substance P-induced histamine release, in words: structure/activity considerations, Tables 1a/1b
Experimental: Stock solutions: avenanthramides 2 to 19 (structural formulae: see Table 1a) and dianthramides 20-29 (structural formulae: see Table 1b); concentration: 1% in ethanol; storage before use at 4° C.) Mast cells from the peritoneal tissue of rats were isolated by centrifuging on metrizamide and stimulated with substance P (10 μM). […] The synthetically prepared avenanthramides and dianthramides of the Formulae 2 to 29 (cf. […] Test system: The final test solutions were incubated for 2 minutes in the presence of substance P and of the reference substance (CaCl2) or of the particular sample to be tested (incubation temperature: 37° C.). Cells that had been incubated in the absence of substance P and reference or sample substance served as blank. The reaction solutions were first freed from cell constituents by centrifuging. The histamine present in the supernatant liquor was then converted to a derivative with OPT and the fluorescence of the solutions was determined photometrically (fluorometer Cytofluor 2350). […] The values for the various avenanthramides are given in Table 2 as % inhibition based on the histamine content of cells stimulated with substance P without the addition of inhibitors.

rat mast cells = details: oral application, dose of 200 mg/kg; cited from earlier work
mast cells [3] = details: cited from earlier work; remark: listed apart in the source
mast cells [4] = experiment: Substance P-induced release of histamine from mast cells (Hachisuka et al.); assay type: cell-based; details: 10^−3 M converted with molecular weight 327
Excerpt: As Komatsu et al report, tranilast inhibits the antigen-(DNP ascaris; monoclonal IgE antibody with 2,4-dinitrophenyl-specificity) induced release of histamine from mast cells in the concentration range of 10^−3 to 10^−5 M. It was possible to achieve 50% inhibition of the histamine release at a concentration of approximately 10^−4 M. On the other hand, the influence of other anthranilic acid amides on the inhibition of the release of histamine from mast cells was not described in the publication. Hachisuka et al. (Arch. Dermatol. Res. Vol. 280, p. 158-162; 1988) investigated the influence of various active compounds on the inhibition of the substance P-induced release of histamine from mast cells. Here the activity of disodium chromogylcate (sic), ketotifen and tranilast was compared. […] Other anthranilic acid amides were not investigated in more detail within the framework of this research work either.
The comparatively low activity of tranilast agrees with the research carried out by Hachisuka et al. (Arch Dermatol Res Vol. 280, p. 158-162; 1988). […] Apparently, the alkylation of the vicinal hydroxyl groups in the cinnamic acid part or dihydrocinnamic acid part is accompanied by a significant reduction in activity.

SMILES	inhibition at 0.5 µg/mL [2]	inhibition at 5 µg/mL [2]	inhibition at 50 µg/mL [2]	further results
O=C([O-])c1cc(=O)c2c(OCC(O)COc3cccc4oc(C(=O)[O-])cc(=O)c34)cccc2o1.[Na+].[Na+] [DSCG, disodium cromoglycate]				inhibition of substance P-induced histamine release (mast cells [1]; at 10^−3 M): 41%
[Ca+2].[Cl-].[Cl-] [calcium chloride, reference compound]				IC50 ([2]; test series 3.1 (synthetic anthranilic acid amides)): 639 µM; IC50 ([2]; test series 3.2 (oat fraction vs reconstituted product)): 432 µM
O=C(/C=C/c1ccc(O)c(O)c1)Nc1ccccc1C(=O)O [compound 2]	7%	80%	108%	activity in inhibiting substance P-induced histamine release, in words [2]: complete inhibition of the histamine release
O=C(/C=C/c1ccc(O)c(O)c1)Nc1ccc(O)cc1C(=O)O [compound 3]	11%	62%	106%	activity in inhibiting substance P-induced histamine release, in words [2]: complete inhibition of the histamine release
COc1cc(/C=C/C(=O)Nc2ccc(O)cc2C(=O)O)ccc1O [compound 4]	3%	49%	59%	
O=C(CCc1ccc(O)cc1)Nc1ccc(O)cc1C(=O)O [compound 5]	7%	17%	47%	
O=C(/C=C/c1ccc(O)cc1)Nc1cc(O)ccc1C(=O)O [compound 6]	-9%	1%	41%	
O=C(/C=C/c1ccc(O)cc1)Nc1ccc(O)cc1C(=O)O [compound 7]	27%	26%	40%	
O=C(CCc1ccc(O)cc1)Nc1ccccc1C(=O)O [compound 8]	13%	26%	40%	
COc1cc(/C=C/C(=O)Nc2ccccc2C(=O)O)ccc1O [compound 9]	11%	19%	39%	
O=C(/C=C/c1ccc(O)cc1)Nc1ccccc1C(=O)O [compound 10]	-10%	8%	37%	
COc1ccc(CCC(=O)Nc2ccc(O)cc2C(=O)O)cc1OC [compound 11]	-6%	11%	36%	
O=C(/C=C/c1ccccc1)Nc1ccc(O)cc1C(=O)O [compound 12]	-5%	0%	34%	
COc1ccc(/C=C/C(=O)Nc2ccc(O)cc2C(=O)O)cc1OC [compound 13]	17%	2%	30%	
COc1ccc(/C=C/C(=O)Nc2ccccc2C(=O)O)cc1 [compound 14]	21%	30%	24%	
COc1ccc(/C=C/C(=O)Nc2ccccc2C(=O)O)cc1OC [compound 15]	23%	22%		

SMILES	inhibition at 0.5 µg/mL [2]	inhibition at 5 µg/mL [2]	inhibition at 50 µg/mL [2]	further results
COC(=O)c1ccccc1NC(=O)CCc1ccc(OC)c(OC)c1 [compound 16]	26%	25%	7%	
O=C(/C=C/c1ccccc1)Nc1ccccc1C(=O)O [compound 17]	4%	7%	6%	
COC(=O)c1ccccc1NC(=O)/C=C/c1ccc(OC)c(OC)c1 [compound 18]	5%	-3%	6%	
COc1ccc(CCC(=O)Nc2ccccc2C(=O)O)cc1OC [compound 19]	-15%	-22%	-4%	
O=C(Nc1ccccc1C(=O)O)c1ccc(O)c(O)c1 [compound 20, 2-[(3,4-dihydroxybenzoyl)amino]benzoic acid]	14%	76%	110%	activity in inhibiting substance P-induced histamine release, in words [2]: greatest activity
O=C(Nc1ccc(O)cc1C(=O)O)c1ccc(O)cc1 [compound 21]	-15%	48%	76%	
O=C(Nc1ccccc1C(=O)O)c1cc(O)c(O)c(O)c1 [compound 22, 2-[(3,4,5-trihydroxy-benzoyl)amino]benzoic acid]	39%	72%	71%	
COc1ccc(C(=O)Nc2ccccc2C(=O)O)cc1O [compound 23, 2-[(3-hydroxy-4-methoxybenzoyl)amino]-benzoic acid]	9%	29%	69%	
O=C(Nc1ccccc1C(=O)O)c1ccc(O)cc1 [compound 24, 2-[(4-hydroxy-benzoyl)amino]benzoic acid]	7%	19%	55%	
COc1cc(C(=O)Nc2ccccc2C(=O)O)ccc1O [compound 25, 2-[(4-hydroxy-3-methoxybenzoyl)amino]-benzoic acid]	8%	42%	51%	
O=C(Nc1ccccc1C(=O)O)c1ccc(O)cc1O [compound 26]	-13%	22%	48%	
O=C(Nc1ccccc1C(=O)O)c1ccccc1 [compound 27]	27%	28%	39%	
O=C(Nc1ccccc1C(=O)O)c1cccc(O)c1 [compound 28, 2-[(3-hydroxy-benzoyl)amino]benzoic acid]	12%	25%	35%	
O=C(Nc1ccccc1C(=O)O)c1ccccc1O [compound 29]	-1%	15%	23%	
O=C(/C=C/c1ccc(O)cc1)Nc1ccccc1C(=O)O [substance 10, N-(4-hydroxycinnamoyl)anthranilic Acid]				inhibition of antigen-induced destruction of rat mast cells (rat mast cells): 36.7%
COc1ccc(/C=C/C(=O)Nc2ccccc2C(=O)O)cc1OC [substance 15, N-(3,4-dimethoxy-cinnamoyl)anthranilic acid]			21%	inhibition of antigen-induced destruction of rat mast cells (rat mast cells): 46.1%; IC50 (mast cells [1]; Hachisuka et al. 1988, read-out: concentration for 50% inhibition of the substance P-induced histamine release): ~1000 µM; concentration range inhibiting antigen-induced release of histamine (mast cells [3]; DNP ascaris, monoclonal IgE antibody with 2,4-dinitrophenyl-specificity): 10^−3 to 10^−5 M; IC50 (mast cells [3]; antigen-induced (DNP ascaris), read-out: concentration for 50% inhibition of the histamine release): ~100 µM; concentration for 50% inhibition of the substance P-induced histamine release (mast cells [4]): 327 ppm; IC50 (mast cells [4]; Mast cell, read-out: concentration for 50% inhibition of the substance P-induced histamine release): 327 mg/L (≈ 999 µM)
